From patent US7494767B2, “Assay for TSG101 as inhibitors of HIV production” (priority 2001, dated 2009) come the findings set out here.

Experiment [1] relates to HIV-1 particles. Nature of the experiment: Release of HIV-1 virus-like particles from transfected COS-1 cells (Western blot of particles, anti-CA). The format is cell-based. The note with it: 5 μM pa in the absence of pIND-h-Tsg101-FLAG.
Experiment [2] deals with T1, Tsg101 capture by Pr55^Gag (Homo sapiens, UniProt Q99816).
T1 construct: anneals at the position corresponding to amino acid 10 in the protein, and 3′ primer no; 30, which anneals to the C-terminus; made in house; host or cells: Tsg101: rabbit reticulocyte lysate (TNT T7 system); Pr55Gag: E. coli BL21-DE3
T1 sequence (Q99816 11-390): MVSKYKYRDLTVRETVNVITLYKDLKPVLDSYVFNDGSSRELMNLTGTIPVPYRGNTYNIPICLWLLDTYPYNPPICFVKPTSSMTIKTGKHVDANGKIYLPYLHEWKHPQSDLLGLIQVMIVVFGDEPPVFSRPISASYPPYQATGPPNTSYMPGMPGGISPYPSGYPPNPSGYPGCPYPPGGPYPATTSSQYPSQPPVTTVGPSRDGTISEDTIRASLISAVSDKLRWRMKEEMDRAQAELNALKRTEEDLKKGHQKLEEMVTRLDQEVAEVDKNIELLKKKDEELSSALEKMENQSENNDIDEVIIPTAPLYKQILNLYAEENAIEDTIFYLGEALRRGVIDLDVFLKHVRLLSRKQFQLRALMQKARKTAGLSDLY
Nature of the experiment: Immune capture competition assay: Tsg101 capture by Pr55^Gag on antibody-coated Protein A beads. The format is binding, mouse or human. The note with it: 5-fold molar excess of peptide. On the procedure:
Protein detection. Proteins were separated by electrophoresis through a 12.5% SDS polyacrylamide gel. For detection of radiolabeled Tsg101 after electrophoresis, gels were fixed, incubated for 30 min in EN^3HANCE (DuPont NEN) autoradiography enhancer for gel fluorography and dried. Radioactive bands were visualized using imaging film (BioMax, Kodak). Gels with non-radioactive samples were transferred to nitrocellulose and analyzed by Western blotting. The following antibodies, as specified in the text, were used: anti-capsid (CA)1 and -CA2 (rabbit polyclonal antibodies raised against native and denatured forms of the CA protein, respectively; Ebbets-Reed, D., 1996, in Molecular Microbiology, State University of New York at Stony Brook, Stony Brook, N.Y., pp. 209; Ehrlich, L. S., Agresta, B. E. & Carter, C. A., 1992, J. Virol. 66,4874-4883); anti-CA3 (mouse monoclonal antibody, NEN-DuPont); anti-p6 (rabbit polyclonal against the C-terminal 16 amino acids, S. Campbell, NCI-FCRDC); anti-nucleocapsid (NC, goat polyclonal, A. Rein, NCI-FCRDC); anti-T7 (Novagen); anti-Tsg1011 (monoclonal, Santa Cruz); antiTsg1012 (rabbit polyclonal, obtained from S. Cohen, Stanford U.). […]
Tsg101 binds to Pr55^Gag in vitro. […] The protein was detected consistently as a doublet, perhaps due to internal initiation at Met10. The protein was also sometimes detected as a doublet in cytoplasmic extracts. […]

With `CC(C)CC[C@@H](O)[C@](C)(O)[C@H]1CC[C@@]2(O)C3=CC(=O)[C@@H]4C[C@@H](O)[C@@H](O)C[C@]4(C)[C@H]3CC[C@]12C` [pa, reference compound], the “inhibitory effect on virus release” value in experiment [1] is “no inhibitory effect”.

As to LIAPP, the “reduction in Tsg101 capture by Pr55^Gag” value in experiment [2] is given as “no change was detected”.
